Reference: publication PMC9446078 (Frontiers in Endocrinology, 2022)

Assay: Toxicokinetics in miniature swine
Type: in vivo, Hanford miniature swine
Procedure: A total of 40 Hanford miniature swine (20 male and 20 female) divided into four treatment groups were used for this study. A 12-week topical application of Galnobax 20% was carried out in the miniature swine wound healing model with twice-daily dosing. Six wounds (10 cm^2 each) of partial thickness were created on the dorsal region of all animals. Four wounds of each animal received twice-daily topical doses of either the vehicle or Galnobax gel, and the remaining two sites served as untreated comparative control wounds. Each group has four male and female miniature swine for the assessments and one each for the recovery period as given in Table 1 . Safety parameters in terms of ECG, clinical pathology, wound site evaluation, and toxicokinetics were performed during the study.

[1] = Day 1, Group 2 swine, topical 400 mg Galnobax Gel, mean
[2] = Week 6, Group 2 swine, topical 400 mg Galnobax Gel BID, mean
[3] = Week 12, Group 2 swine, topical 400 mg Galnobax Gel BID, mean

With `CC(C)NCC(O)COc1ccc(CCC(=O)O)cc1` (centres unmarked) [Esmolol Acid, Esmolol acid] the AUClast [1] was 3780 ng·h/mL, the Cmax [1] was 683 ng/mL and the Tmax [1] was 2.60 h. For the same molecule, the t1/2 [1] was 4.18 h, the t1/2 (Day 1, Group 2 swine, topical 400 mg Galnobax Gel, mean, listed as Esmolol acid) was “approximately 4 hr” and the AUClast [2] was 308 ng·h/mL. For the same molecule, the Cmax [2] was 52.5 ng/mL, the Tmax [2] was 5.33 h and the AUC0-8 [3] was 269 ng·h/mL. It also gave an AUClast [3] of 291 ng·h/mL, a Cmax [3] of 59.7 ng/mL and a Tmax [3] of 2.09 h. For the same molecule, the t1/2 [3] was 15.90 h and the “accumulation after 12 weeks of twice-daily topical application” value (miniature swine, topical Galnobax) was “no apparent accumulation”.
